Experimental findings from ChEMBL document CHEMBL4138277, “Lipovelutibols A-D: Cytotoxic Lipopeptaibols from the Himalayan Cold Habitat Fungus Trichoderma velutinum” (J Nat Prod, 2018) are described below.

What all share (type): functional, cell-based
Assay [1] has as its system LS180. Nature of the assay: Cytotoxicity against human LS180 cells after 48 hrs by MTT assay. The note with it: LS180, 48 h. A general note: Tetrazolium dyes change colour on reduction, which living cells bring about.
In assay [2] the test system is HL-60. In words: Cytotoxicity against human HL60 cells after 48 hrs by MTT assay. The following applies: HL-60, 48 h.
The subject of assay [3] is MDA-MB-231. In words: Cytotoxicity against human MDA-MB-231 cells after 48 hrs by MTT assay. The following applies: MDA-MB-231, 48 h.
Assay [4] deals with A549. Nature of the assay: Cytotoxicity against human A549 cells after 48 hrs by MTT assay. The following applies: A549, 48 h.

Non-standard residues stand in square brackets, D forms with d. Residues, ends and D or L forms follow the SMILES beside them. *: point of attachment. Leu(ol) = CC(C)C[C@H](N)CO; dIva = CC[C@@](C)(N)C(=O)O; Octanoyl = CCCCCCCC(=O)*; Aib = CC(C)(N)C(=O)O

Take `CCCCCCCC(=O)NCC(=O)N[C@@H](C)C(=O)N[C@@H](CC(C)C)C(=O)N[C@](C)(CC)C(=O)N[C@@H](CO)C(=O)N[C@H](C(=O)N[C@H](CO)CC(C)C)[C@@H](C)CC`: the IC50 (commonly the concentration that inhibits the measured activity by half) in assay [1] was over 30 µM; in assay [2], 2 µM; in assay [3], 4 µM; in assay [4], 30 µM.

Turning to `CCCCCCCC(=O)NCC(=O)N[C@@H](C)C(=O)N[C@@H](CC(C)C)C(=O)NC(C)(C)C(=O)N[C@@H](C)C(=O)N[C@H](C(=O)N[C@H](CO)CC(C)C)[C@@H](C)CC` (Octanoyl-GAL[Aib]AI[Leu(ol)]), the IC50 is over 30 µM in assay [1], 16 µM in assay [2], 16 µM in assay [3] and 17 µM in assay [4].

Consider `CCCCCCCC(=O)NCC(=O)N[C@@H](C)C(=O)N[C@@H](CC(C)C)C(=O)NC(C)(C)C(=O)N[C@@H](CO)C(=O)N[C@H](C(=O)N[C@H](CO)CC(C)C)[C@@H](C)CC` (Octanoyl-GAL[Aib]SI[Leu(ol)]), for which the concentration for half-maximal inhibition (IC50) in assay [1] is over 30 µM; in assay [2], over 30 µM; in assay [3], over 30 µM; in assay [4], 30 µM.

As for `CCCCCCCC(=O)NCC(=O)N[C@@H](C)C(=O)N[C@@H](CC(C)C)C(=O)N[C@](C)(CC)C(=O)N[C@@H](C)C(=O)N[C@H](C(=O)N[C@H](CO)CC(C)C)[C@@H](C)CC` (Octanoyl-GAL[dIva]AI[Leu(ol)]), the IC50 in assay [1] was 7 µM; in assay [2] it was 4 µM; in assay [3], 5 µM; in assay [4], 4 µM.

The compound `CC(=O)O[C@H]1C(=O)[C@@]2(C)[C@H]([C@H](OC(=O)c3ccccc3)[C@]3(O)C[C@H](OC(=O)[C@H](O)[C@@H](NC(=O)c4ccccc4)c4ccccc4)C(C)=C1C3(C)C)[C@]1(OC(C)=O)CO[C@@H]1C[C@@H]2O` [PACLITAXEL] showed a half-maximal inhibitory concentration (IC50) in assay [1] of 0.0028 µM.
